Earlier results in patent publication US10208063B2, “ACC inhibitors and uses thereof” (Gilead Apollo, LLC, priority 2013, dated 2019).

Columns and labels:
ACC1 = ACC1 isolated from rat, mouse, monkey and human
ACC2 = ACC2 isolated from rat, mouse, monkey and human
pyruvate carboxylase = target: T1, pyruvate carboxylase (Homo sapiens, UniProt P11498)
T1 sequence (P11498 21-1178): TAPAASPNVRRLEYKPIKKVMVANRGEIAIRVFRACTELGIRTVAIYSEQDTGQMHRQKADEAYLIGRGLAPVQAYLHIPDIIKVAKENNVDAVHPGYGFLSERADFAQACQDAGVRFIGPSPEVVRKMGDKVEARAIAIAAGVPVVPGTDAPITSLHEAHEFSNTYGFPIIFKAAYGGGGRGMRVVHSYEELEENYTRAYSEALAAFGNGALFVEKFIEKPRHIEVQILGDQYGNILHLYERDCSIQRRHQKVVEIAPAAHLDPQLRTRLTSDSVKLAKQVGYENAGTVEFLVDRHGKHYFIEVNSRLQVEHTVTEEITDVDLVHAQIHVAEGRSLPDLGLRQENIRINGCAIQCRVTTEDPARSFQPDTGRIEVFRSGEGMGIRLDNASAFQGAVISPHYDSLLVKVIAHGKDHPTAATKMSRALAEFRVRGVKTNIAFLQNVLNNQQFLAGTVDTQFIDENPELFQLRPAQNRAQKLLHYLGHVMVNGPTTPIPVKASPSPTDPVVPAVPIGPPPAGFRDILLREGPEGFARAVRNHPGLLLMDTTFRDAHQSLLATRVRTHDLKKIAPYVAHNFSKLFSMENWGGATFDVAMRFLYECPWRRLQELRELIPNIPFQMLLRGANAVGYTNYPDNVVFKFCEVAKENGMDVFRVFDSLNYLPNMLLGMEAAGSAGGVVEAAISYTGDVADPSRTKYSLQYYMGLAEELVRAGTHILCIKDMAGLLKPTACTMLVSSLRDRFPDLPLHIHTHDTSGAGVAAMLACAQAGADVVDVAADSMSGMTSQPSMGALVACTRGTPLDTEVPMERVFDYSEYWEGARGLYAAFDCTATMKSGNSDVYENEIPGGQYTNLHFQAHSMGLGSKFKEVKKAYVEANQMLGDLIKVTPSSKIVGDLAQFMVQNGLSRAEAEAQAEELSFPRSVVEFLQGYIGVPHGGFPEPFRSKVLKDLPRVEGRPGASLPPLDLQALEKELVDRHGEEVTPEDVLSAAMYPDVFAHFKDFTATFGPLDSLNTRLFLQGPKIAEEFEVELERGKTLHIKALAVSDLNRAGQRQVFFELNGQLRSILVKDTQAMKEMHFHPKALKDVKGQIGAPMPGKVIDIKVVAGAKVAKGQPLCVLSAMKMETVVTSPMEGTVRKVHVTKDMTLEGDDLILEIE

[1] = target: T2, propionyl-CoA carboxylase (Homo sapiens, UniProt P05165+P05166)
T2 sequence (P05165 53-728): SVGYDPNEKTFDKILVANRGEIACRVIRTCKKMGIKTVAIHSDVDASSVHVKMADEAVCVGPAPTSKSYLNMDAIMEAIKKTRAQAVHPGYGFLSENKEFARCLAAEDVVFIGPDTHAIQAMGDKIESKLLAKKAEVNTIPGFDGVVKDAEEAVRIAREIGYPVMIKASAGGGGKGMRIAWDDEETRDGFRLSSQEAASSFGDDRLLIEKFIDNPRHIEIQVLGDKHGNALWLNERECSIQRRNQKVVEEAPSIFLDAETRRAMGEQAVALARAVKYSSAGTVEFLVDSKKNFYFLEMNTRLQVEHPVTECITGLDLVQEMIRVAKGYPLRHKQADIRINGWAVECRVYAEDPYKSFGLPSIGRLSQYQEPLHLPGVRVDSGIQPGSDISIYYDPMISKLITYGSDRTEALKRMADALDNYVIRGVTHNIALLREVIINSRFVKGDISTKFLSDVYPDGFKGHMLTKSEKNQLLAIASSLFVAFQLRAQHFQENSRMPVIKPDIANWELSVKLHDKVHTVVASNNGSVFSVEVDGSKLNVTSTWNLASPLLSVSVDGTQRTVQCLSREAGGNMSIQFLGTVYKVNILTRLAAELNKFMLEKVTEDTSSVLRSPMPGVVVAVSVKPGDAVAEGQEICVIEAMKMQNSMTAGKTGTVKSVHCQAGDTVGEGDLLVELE
T2 sequence (P05166 29-539): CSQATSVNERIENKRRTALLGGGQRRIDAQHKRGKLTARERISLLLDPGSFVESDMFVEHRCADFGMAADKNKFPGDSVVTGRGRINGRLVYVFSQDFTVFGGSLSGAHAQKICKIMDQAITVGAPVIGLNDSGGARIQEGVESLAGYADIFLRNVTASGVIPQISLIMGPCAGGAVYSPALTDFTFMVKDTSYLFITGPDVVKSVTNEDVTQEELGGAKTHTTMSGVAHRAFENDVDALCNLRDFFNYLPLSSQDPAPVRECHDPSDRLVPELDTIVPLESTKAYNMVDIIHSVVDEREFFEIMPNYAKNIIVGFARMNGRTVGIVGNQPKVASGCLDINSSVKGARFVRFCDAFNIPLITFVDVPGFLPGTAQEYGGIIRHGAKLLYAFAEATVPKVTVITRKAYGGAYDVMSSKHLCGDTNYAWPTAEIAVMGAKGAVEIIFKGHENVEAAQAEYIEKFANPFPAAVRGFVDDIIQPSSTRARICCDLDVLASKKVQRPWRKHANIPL

[2] = sucrose-fed rats, three weeks
[3] = test system: insulin-resistant rat muscle tissue; conditions: within 30 min of compound administration
[4] = rats, acute (46 min) treatment

Compound: O=C(c1c2ccccc2cc2ccccc12)N1CCC(N2CCC[C@@H](C(=O)N3CCOCC3)C2)CC1 [CP-640186]
- IC50 (ACC1): ~60 nM
- IC50 (ACC2): ~60 nM
- inhibition of pyruvate carboxylase (pyruvate carboxylase): without inhibiting
- inhibition of propionyl-CoA carboxylase [1]: without inhibiting
- CPT-I activity (Hep-G2 cells): increased
- FA synthesis (Hep-G2 cells): reduced
- apoA1 secretion (Hep-G2 cells): without affecting
- apoB secretion (Hep-G2 cells): reduced
- cholesterol synthesis (Hep-G2 cells): without affecting
- triglyceride synthesis and secretion (Hep-G2 cells): reduced
- FA oxidation (C2C12 cells): stimulated
- FA oxidation (rat muscle slices): stimulated
- liver and adipose tissue FA synthesis (experimental animals): reduced
- whole body FA oxidation (experimental animals): increased
- malonyl-CoA concentration (lipogenic and oxidative tissues, fed and fasted state): acutely reduced
- insulin sensitivity [2]: improved
- leptin levels [2]: reduced
- liver, muscle and adipose triglycerides [2]: time- and dose-dependently reduced
- body weight ([2]; selective fat reduction without reducing lean body mass): reduced
- hyperinsulinemia produced by the high sucrose diet ([2]; without changing plasma glucose levels): reduced
- insulin sensitivity [3]: stimulation
- FA clearance [4]: stimulated
- glucose clearance [4]: without decreasing

Compound: CO[C@H]1CCCC[C@@H](c2ccccc2)OC(=O)[C@@H](C)[C@@]2(O)O[C@H]([C@@H](C)[C@H](O)[C@H]2OC)[C@@H](C)/C=C/[C@H]1OC [soraphen A]
- lipogenesis (liposarcoma): inhibited
- tumor cell growth (liposarcoma): inhibited
